Values joined by “and” are separate entries in the source; they are usually repeats but may differ in a detail not shown here. Equal entries are not always repeated. “Also recorded” adds a separate entry of the source. Where two headings read alike, the source gives them in different places.
Assays:
[1] = biological target: T1, α1S-Na,K-ATPase from pig kidneys in E2P-conformation (Sus scrofa, UniProt P05024); type: biochemical
T1 construct: In contrast to α1S-NKA from pig kidneys; from tissue; host or cells: pig kidney
Method: (§1) To identify a mode of enzyme inhibition by CTSs after their binding to different enzyme conformations, we preincubated NKA in the medium containing 30 MM imidazole (pH 7.4), 3 mM MgCl2, 3 mM Pi/Tris and 1 mM EDTA (E2P-conformation). Solutions of CTSs were made using 100% DMSO with a final concentration of ouabain 100 mM and digoxin and marinobufagenin at 10 mM. Then an aliquot of the corresponding stock solution was added to the preincubation medium to obtain a final CTSs concentration.
(§2) After enzyme preincubation with different concentrations of CTSs for several minutes, the reaction was started by transferring the aliquot of the solution containing 0.25–2.5 μg of NKA from the preincubation medium into the incubation one. The concentration of CTSs was decreased by this procedure by 50–100 times. […] That time interval was equal to 10 min for E2P-conformation of pig and rat kidney enzymes. The control sample was preincubated under the same conditions with a concentration of DMSO that was added to the experimental medium with the corresponding CTS.
(§3) The plots describing the dependence of the NKA hydrolytic activity on CTSs concentration in the incubation medium were made using the Origin 8.1 program (OriginLab Corp., Northampton, MA, USA). They were fitted by hyperbola. The dependence of the Na,K-ATPase hydrolytic activity on the CTSs’ concentration in the preincubation media was fitted to the Hill 1 function: y=y0+ymax−y0x^n/k^n+x^n, where y—Na,K-ATPase activity; x—concentration of CTS; k—inhibition constant; n—Hill coefficient. Fitting was performed using Origin 8.1 software.

[2] = biological target: T2, α1R-Na,K-ATPase in E2P-conformation (Rattus norvegicus, UniProt P06685); assay: biochemical; type: binding
T2 construct: α1R-NKA from rat kidneys was transferred into the buffer by dialysis; from tissue; host or cells: rat kidney
Method: (§4) The thermodynamic parameters of CTSs’ binding to the pig and rat NKA were measured using the MicroCal iTC200 instrument (MicroCal, Northampton, MA, USA), as described earlier. α1S-NKA (pig) was transferred into E2P-conformation in the following way: enzyme preparations (5 mg) were suspended in 3 mL of buffer 10 mM imidazole, 3 mM Tris/Pi (pH 7.4), 1 mM EDTA, 0.1 mM DTT and 3 mM MgCl2 (E2P-conformation). DTT was added to the buffer immediately before the experiment. Suspensions of enzymes were centrifuged at 138,000 g for 90 min, and the pellets obtained were suspended in the buffer. α1R-NKA from rat kidneys was transferred into the buffer by dialysis.
(§5) Experiments were carried out at 37 °C. CTSs were diluted by a buffer that was used for enzyme suspension. Aliquots (2.5 μL) of ligands were injected into a 0.2 mL cell containing the protein solution to achieve a complete binding isotherm. The protein concentration on the cell ranged from 10 to 20 μM, and the ligand concentration in the syringe ranged from 50 to 200 μM. When we used digoxin or marinobufagenin, stock solutions were prepared using 100% DMSO, and then stock solutions were diluted to needed concentrations by the corresponding buffer; after that, aliquots were added to the cell. The medium with a protein of interest contained DMSO in the same concentration.
(§6) The resulting titration curves were fitted using the MicroCal Origin software, assuming one set of binding sites. Affinity constants (Ka) and enthalpy variations (ΔH) were determined, and the Gibbs energy (ΔG) and entropy variations (ΔS) were calculated from the equation:ΔG = −RTlnKa = ΔH – TΔS.

renal epithelial cells = system: renal epithelial cells; parameters: method as in PMID 15494417; settings: ion transport by NKA inhibited by 50% at these concentrations; cited from earlier work
[3] = biological target: T3, α1S-Na,K-ATPase in E2P-conformation (Sus scrofa, UniProt P05024); assay: biochemical; type: binding, pig
T3 construct: In contrast to α1S-NKA from pig kidneys; from tissue; host or cells: pig kidney
Method: as §4, §5, §6

[4] = biological target: NKA from duck salt glands (α1β1-isoform), E2P-conformation; parameters: method as in PMID 26297827; settings: cited from earlier work; for Kd: read-out: Kd, binding to E2P-conformation of NKA
[5] = biological target: T4, α1R-Na,K-ATPase from rat kidneys (Rattus norvegicus, UniProt P06685); assay: Hydrolytic Na,K-ATPase activity (enzyme coupled assay), CTS in incubation medium; type: biochemical; settings: for inhibition of α1R-NKA activity (in words): concentration up to 500 μM
T4 construct: α1R-NKA from rat kidneys was transferred into the buffer by dialysis; from tissue; host or cells: rat kidney
Method: (§7) NKA activity was estimated as ATP cleavage using the enzyme coupled assay method. Incubation medium (2 mL) contained 130 mM NaCl, 20 mM KCl, 4 mM MgCl2, 3 mM ATP, […] (pH 7.4), 1 mM phosphoenolpyruvate, 0.2 mM NADH, 0.18 MM; NADH and pyruvate kinase (600–1000 units/mL)/lactate dehydrogenase (900–1400 units/mL). […] Incubation was carried out at 37 °C, and the concentration of Na,K-ATPase in the sample was 0.4–0.6 μg/mL. […] To determine IC50, 2 μg NKA was preincubated with CTSs in the incubation medium for 10 min, and after that, the reaction was started by the addition of ATP.
as §3

[6] = biological target: T5, α1S-Na,K-ATPase from pig kidneys (Sus scrofa, UniProt P05024); assay: as above; type: biochemical
T5 construct: In contrast to α1S-NKA from pig kidneys; from tissue; host or cells: pig kidney
Method: as §7, §3

NKA from pig kidneys = settings: read-out: IC50 measured for the enzyme from pig kidneys; cited from earlier work
[7] = biological target: T6, α1R-Na,K-ATPase from rat kidney in E2P-conformation (Rattus norvegicus, UniProt P06685); type: biochemical
T6 construct: α1R-NKA from rat kidneys was transferred into the buffer by dialysis; from tissue; host or cells: rat kidney
Method: as §1, §2, §3

NKA in E2P-conformation = biological target: NKA in E2P-conformation; parameters: method as in PMID 33318128; settings: read-out: Kd for binding to E2P-conformation; cited from earlier work
[8] = after preincubation with enzyme in E2P-conformation and dilution
[9] = ITC, E2P-conformation, pH 7.4, 37 °C
[10] = ITC, E2P-conformation, pH 7.4, 37 °C, calculated as Kd = 1/Ka, read-out: Kd (dissociation constant)
[11] = ITC, pH 7.4, 37 °C, ΔG = −RTlnKa
[12] = CTS in incubation medium, 37 °C, hyperbola fit, read-out: IC50, inhibition of α1S-NKA hydrolytic activity
[13] = as restated in discussion, read-out: IC50 evaluated in our experiments
[14] = ITC, E2P-conformation, pH 7.4, 37 °C, nd = not detected

C[C@]12CC[C@H](O)C[C@@]1(O)CC[C@@H]1[C@@H]2CC[C@]2(C)[C@@H](c3ccc(=O)oc3)C[C@H]3O[C@]132 [marinobufagenin]
mode of α1S-NKA inhibition (in words) [1, 8]: reversible inhibitor; also recorded: reversibly | binding of α1R-NKA to CTS (in words) ([2]; ITC, association constants below 2 × 10^4 M^−1 cannot be measured): no measurable binding | concentration inducing renal epithelial cells death (renal epithelial cells): about 1 μM | entropy component (−TΔS) ([3]; ITC, 37 °C): -2.8 kcal/mol | affinity of α1S-NKA for marinobufagenin lower than that for digoxin ([3]; ITC, E2P-conformation, 37 °C): ~11 times | affinity of α1S-NKA for marinobufagenin lower than that for ouabain ([3]; ITC, E2P-conformation, 37 °C): about 44 times | Ka (association constant) [3, 9]: 4.3 × 10^5 * M^−1 | TΔS (entropy variation) [3, 9]: 2.8 kcal/mol | n (reaction stoichiometry) [3, 9]: 1.7 ± 0.2 | ΔH (enthalpy variation) [3, 9]: -5.2 ± 0.3 kcal/mol | Kd [3, 10]: 2320 nM | ΔH (enthalpy variation) ([3]; ITC, E2P-conformation, pH 7.4, 37 °C, listed as MBG): -5.2 kcal/mol | Kd ([3]; ITC, Table 1 value as quoted in discussion, read-out: Kd for binding to E2P-conformation): 2300 nM | ΔG (Gibbs energy) [3, 11]: -7.9 kcal/mol | Kd [4]: 1700 nM | inhibition of α1R-NKA activity (in words) [5]: does not inhibit this isoform at all | inhibition of α1R-NKA activity (in words) ([5]; listed as Marinobufagenin): does not inhibit | IC50 [6, 12]: 800 nM | IC50 [6, 13]: 1200 nM | IC50 (NKA from pig kidneys): 1500 nM

C[C@H]1O[C@@H](O[C@H]2[C@@H](O)C[C@H](O[C@H]3[C@@H](O)C[C@H](O[C@H]4CC[C@@]5(C)[C@H](CC[C@@H]6[C@@H]5C[C@@H](O)[C@]5(C)[C@@H](C7=CC(=O)OC7)CC[C@]65O)C4)O[C@@H]3C)O[C@@H]2C)C[C@H](O)[C@@H]1O [digoxin]
mode of interaction with α1R-NKA (in words) [7]: reversible | Hill coefficient [1]: 1.90 ± 0.21 and 1.70 ± 0.33 and 1.99 ± 0.27 | mode of α1S-NKA inhibition (in words) [1]: pseudo-irreversible inhibitors | Kd (NKA in E2P-conformation): 126 nM | binding of α1R-NKA to CTS (in words) [2]: no measurable binding | entropy component (−TΔS) [3]: -2.0 kcal/mol | TΔS (entropy variation) ([3]; pH 7.4): 2.0 kcal/mol | n (reaction stoichiometry) ([3]; pH 7.4): 0.5 ± 0.1 | ΔG (Gibbs energy) ([3]; pH 7.4): -9.9 kcal/mol | ΔH (enthalpy variation) ([3]; pH 7.4): -7.9 ± 0.6 kcal/mol and -7.9 kcal/mol | IC50 [5]: 250000 nM | IC50 ([6]; IC50, inhibition of α1S-NKA hydrolytic activity): 1200 nM | IC50 ([6]; IC50 evaluated in our experiments): 2000 nM | IC50 (NKA from pig kidneys): 1950 nM

C[C@]12CC[C@H](O)C[C@H]1CC[C@@H]1[C@@H]2CC[C@]2(C)[C@@H](c3ccc(=O)oc3)CC[C@]12O [bufalin]
Kd (NKA in E2P-conformation): 125 nM | IC50 (NKA from pig kidneys): 110 nM

C[C@@H]1O[C@@H](O[C@H]2C[C@@H](O)[C@]3(CO)[C@H]4[C@H](O)C[C@]5(C)[C@@H](C6=CC(=O)OC6)CC[C@]5(O)[C@@H]4CC[C@]3(O)C2)[C@H](O)[C@H](O)[C@H]1O [ouabain]
mode of interaction with α1R-NKA (in words) ([7]; after preincubation with enzyme and dilution): reversibly; also recorded: reversible | Hill coefficient ([1]; CTS in preincubation medium, 40 nM of the enzyme): 1.89 ± 0.14 | Hill coefficient ([1]; CTS in preincubation medium, 80 nM of the enzyme): 1.96 ± 0.19 | Hill coefficient ([1]; CTS in preincubation medium, 400 nM of the enzyme): 1.91 ± 0.09 | mode of α1S-NKA inhibition (in words) [1, 8]: pseudo-irreversible inhibitors | Kd (NKA in E2P-conformation): 88 nM | entropy component (−TΔS) ([2]; ITC, 37 °C): -3.4 kcal/mol | TΔS (entropy variation) [2, 9]: 3.4 kcal/mol | Kd [2, 10]: 3230 nM | Ka (association constant) [2, 14]: 3.1 × 10^5 * M^−1 | n (reaction stoichiometry) [2, 14]: 0.6 ± 0.1 | ΔH (enthalpy variation) [2, 14]: -4.3 ± 0.7 kcal/mol and -4.3 kcal/mol | ΔG (Gibbs energy) [2, 11]: -7.7 kcal/mol | ouabain affinity for α1R-NKA lower than for α1S-NKA ([2]; ITC, α1R versus α1S): 60 times | concentration inducing renal epithelial cells death (renal epithelial cells): ~0.1 µM | Ka (association constant) [3, 9]: 1.9e+07 M⁻¹ | TΔS (entropy variation) [3, 9]: -11.3 kcal/mol | n (reaction stoichiometry) [3, 9]: 0.7 ± 0.2 | ΔH (enthalpy variation) [3, 9]: -21.6 ± 0.7 kcal/mol and -21.6 kcal/mol | Kd [3, 10]: 53 nM | ΔG (Gibbs energy) [3, 11]: -10.3 kcal/mol | higher affinity of ouabain binding in comparison to marinobufagenin ([4]; E2P-conformation): 17 fold | Kd [4]: 100 nM | IC50 ([5]; CTS in incubation medium, 37 °C, hyperbola fit, read-out: IC50, inhibition of rat enzyme (α1R-NKA) hydrolytic activity): 140000 nM | IC50 [6, 12]: 2000 nM | IC50 [6, 13]: 800 nM | IC50 (NKA from pig kidneys): 900 nM

Reference: article PMC8708600, “Depth of the Steroid Core Location Determines the Mode of Na,K-ATPase Inhibition by Cardiotonic Steroids” (International Journal of Molecular Sciences, 2021)
